Laboratory results published in US9457063B2, “Method for treatment of diabetic vascular leakage-induced disease using C-peptide” (KANGWON NATIONAL UNIVERSITY UNIVERSITY-INDUSTRY COOPERATION …, priority 2012, dated 2016).
“And” between values parts separate entries of the source, which are not always exact repeats. Identical values can stand only once.

What was measured:
[1] = tested on: HUVECs; experiment: VEGF-induced intracellular ROS generation in HUVECs; format: cell-based, human; details: for VEGF-induced intracellular ROS generation: HUVECs pre-incubated 30 min with 1 mM NAC, 0.5 mM Trolox or 5 μM BAPTA-AM, 10 ng/ml VEGF 10 min
Method: HUVECs were isolated from the human umbilical cord vein according to a well known process, and cells from passages 3 to 6 were used in the following experiments. Cells were inoculated into M199 culture media (supplemented with 20% FBS, 3 ng/ml bFGF, 5 U/ml heparin, 100 U/ml penicillin, and 100 μg/ml streptomycin) in 2% gelatin-coated coverslips, dishes, or plates, and grown at 37° C. in a humidified 5% CO2 incubator.
For experiments, cells were incubated for 6 h in low-serum medium (M199 supplemented as above, but with only 1% FBS), and treated for a suitable time with 10 ng/ml VEGF in the presence or absence of various concentrations of C-peptide.
In detail, HUVECs inoculated into coverslips were treated with VEGF and C-peptide, and incubated with 10 μM 2′,7′-dichlorodihydrofluorescein diacetate (Molecular Probes, Eugene, Oreg.) in phenol red-free media for the last 10 min. The coverslips were mounted on a perfusion chamber, and labeled cells were rapidly scanned by confocal microscopy. The level of intracellular ROS was determined by comparing the fluorescence intensities of treated cells with those of control cells, and expressing this as a fold difference.

[2] = tested on: HUVECs; experiment: Intracellular Ca2+ levels in HUVECs (Fluo-4 AM); format: cell-based, human; details: HUVECs labeled with 1 μM Fluo-4 AM; for effect on VEGF-induced changes in intracellular Ca2+: n=3
Method: To monitor intracellular Ca^2+ levels, cells inoculated into coverslips were incubated with 1 μM Fluo-4 AM for 30 min. The coverslips were mounted on perfusion chambers and scanned every 10 sec by confocal microscopy (FV-300). Serial images from the scan were processed to analyze changes in intracellular Ca^2+ levels at the single-cell level. Data were expressed as the relative fluorescence intensity (RFI).

[3] = tested on: retinas of streptozotocin diabetic mice; experiment: Retinal vascular leakage in streptozotocin diabetic mice (FITC-dextran fluorescein angiography); format: in vivo; details: for retinal microvascular leakage (extravasation of FITC-dextran) in diabetic mice: intravitreal injection, VEGF antibody 100 μg/ml, N-acetyl-cysteine 81.5 mg/ml, Trolox 125 μg/ml, 2 μl C-peptide, 24 hrs post-injection, n=6, p<0.01
Method: Diabetic mice were generated by a single intraperitoneal injection of streptozotocin (150 mg/kg body weight) freshly prepared in 100 mM citrate buffer (pH 4.5). All mice were supplied with 10% sucrose overnight. Sufficient hyperglycemia was observed 2 days post-injection, as measured by the ACCU-CHEK® Active blood glucose monitor (Roche Diagnostics, Germany). One week after the streptozotocin injection, mice with non-fasting blood glucose levels greater than 16 mM, polyuria, and glucosuria were defined as diabetic and used for the experiments.
The diabetic mice were intravitreally injected with 2 μl of C-peptide (3.7 μg/ml) in PBS into one eye, and an equal volume of PBS was injected into the contralateral eye (n=6 per group). Normal (non-diabetic) mice were also intravitreally injected with 2 μl of PBS into eyes (Normal; n=6 per group). C-peptide concentrations in the vitreous chamber were maintained within the physiological range (0.9 to 2.0 nM) for 12 hrs after intravitreal injection.
After 24 hrs post injection, retina leakage was quantified using fluorescein angiography. In this regard, mice were injected with 1.25 mg of 500-kDa FITC-dextran (Sigma-Aldrich) into the left ventricle and the dye was allowed to circulate for 5 min. Eyes were enucleated and immediately fixed with 4% paraformaldehyde for 45 min. Retinas were dissected, cut in the Maltese cross-configuration, and flat-mounted onto slide glass. Retinas were observed using the confocal microscope. Retina leakage was quantitatively analyzed by determining the intensities of extravasated FITC-dextran from whole retina tissues (n=6 per group) using the FV-300 software.
Diabetic mice were intravitreally injected with a monoclonal VEGF antibody (100 μg/ml), N-acetyl-cysteine (81.5 mg/ml), or Trolox (125 μg/ml) into one eye, and an equal volume of PBS was injected into the contralateral eye (n=6 per group). Twenty four hrs post-injection, retinal vascular leakage was quantified using fluorescein angiography. For the experiment, mice were injected with 1.25 mg of 500-kDa FITC-dextran (Sigma) into the left ventricle and the dye was allowed to circulate for 5 min. The eyes were enucleated and immediately fixed with 4% paraformaldehyde for 45 min. Retinas were dissected, cut in the Maltese cross-configuration, and flat-mounted onto slide glass before observation using confocal microscopy. Retinal vascular leakage was quantitatively analyzed by determining the intensities of extravasated FITC-dextran from whole retina tissues (n=6 per group) using confocal microscopy (FV-300, Olympus, Tokyo, Japan), and applying the intensity data to the FV-300 software.

[4] = tested on: HUVECs; experiment: VEGF-induced stress fiber formation in HUVECs (rhodamine-phalloidin); format: cell-based, human; details: HUVECs 1 hr; 10 ng/ml VEGF with 0.5 nM C-peptide, 1 mM NAC or 0.5 mM Trolox; n=3
Method: HUVECs were grown on gelatin-coated round coverslips in 12-well culture plates, […], alone or in combination, or with 10 ng/ml VEGF in the presence of an ROS scavenger, that is, 1 mM NAC or 0.5 mM Trolox for 1 hr at 37° C. The cells were rapidly rinsed with PBS and fixed with 3.7% formaldehyde in PBS for 30 min. Then, the cells were permeabilized with 0.2% Triton X-100 in PBS for 30 min, and stained with rhodamine-palloidin (Molecular Probes) in PBS for 1 h. The resulting stained cells were mounted on a glass slide using a mounting solution, followed by visualizing actin filaments by confocal microscopy.

[5] = tested on: HUVECs; experiment: VEGF-induced disassembly of VE-cadherin adherens junctions in HUVECs; format: cell-based, human; details: for VEGF-induced disassembly of VE-cadherin: HUVECs 90 min, 10 ng/ml VEGF with 0.5 nM C-peptide, 1 mM NAC or 0.5 mM Trolox, n=3
Method: Confluent cell layers (HUVECs) in 6-well plates were incubated with C-peptide or an ROS scavenger for 30 min, and then treated with VEGF for 90 min at 37° C. The treated cells were rinsed with PBS, and fixed with 3.7% formaldehyde in PBS for 30 min. The cells were permeabilized with 0.2% Triton X-100 in PBS for 30 min, and stained overnight at 4° C. with a monoclonal VE-cadherin antibody (Santa Cruz Biotechnology, Santa Cruz, Calif.) in PBS. Thereafter, the cells were probed with goat anti-mouse FITC (fluorescein isothiocyanate; Sigma, St. Louis, Mo.), followed by visualizing VE-cadherin by confocal microscopy.

[6] = tested on: microvessels of the diabetic mouse retina; experiment: Disassembly of adherens junctions (VE-cadherin) in retina of diabetic mice; format: in vivo; details: intravitreal 2 μl C-peptide, n=3
Method: Diabetic mice were intravitreally injected with 2 μl C-peptide into one eye (Diabetic+C-Pep) and an equal volume of PBS into the contralateral eye (Diabetic, n=3). Normal (non-diabetic) mice also were intravitreally injected with 2 μl PBS into eyes (Normal, n=3).
VE-cadherin was stained in the retina and visualized using confocal microscopy as described below.
Microvessels were stained for VE-cadherin in retinal whole mounts. In detail, isolated retinas were fixed in 100% ethanol for 30 min, delipidated in 100% ice-cold acetone for 10 min, and permeabilized with 0.3% Triton X-100 for 1 hr. The retinas were incubated with an anti-VE-cadherin antibody (Enzo Life Sciences, Farmingdale, N.Y., USA) at 4° C. for 24 hrs, and probed with goat anti-mouse FITC (Sigma) at 4° C. for 24 hrs, followed by visualizing VE-cadherin by confocal microscopy (FV-300, Olympus).

[7] = Serum C-peptide levels during subcutaneous mini-osmotic pump delivery; format: in vivo; details: diabetic mice, 35 pmol/min/kg, n=7
Method: After implantation of a mini-osmotic pump for delivering C-peptide, blood c-peptide levels were measured. One group of diabetic mice (n=7) was subcutaneously implanted with ALZET® mini-osmotic pump 2004 (DURECT, Cupertino, Calif.) containing C-peptide in PBS with a delivery rate of 35 pmol/min/kg. The other diabetic (n=7) and control groups (n=7) underwent sham operations. During the continuous subcutaneous C-peptide perfusion, serum C-peptide levels were measured using a C-peptide Enzyme Immunoassay Kit (RayBiotech, Norcross, Ga.).

[8] = tested on: skin of streptozotocin diabetic mice; experiment: Miles vascular permeability assay in skin of streptozotocin diabetic mice; format: in vivo
Method: A Miles vascular permeability assay was performed in diabetic mice as follows. After 2 to 3 days post-shaving, mice were anesthetized and intravenously injected with 150 μl of a 1% Evans blue solution. After 15 min, 15 μl of a VEGF (10 ng) solution containing 0, 7.5, or 15 ng of C-peptide was injected intradermally into the shaved skin of the mice (n=12 per group). PBS was injected for the control (n=12). An area of skin that included the blue spot resulting from leakage of the dye was dissected, and the Evans blue dye was eluted from the dissected skin by incubation with formamide at 56° C. for 2 days. The amount of dye was quantitated by spectrophotometry at 620 nm.

[9] = C-peptide levels in the vitreous fluid after intravitreal injection; format: in vivo, mice; details: mouse, 7.5 ng, after intravitreal injection of 2 μl C-peptide (3.7 μg/ml), maintained for 12 hrs, physiological range, read-out: C-peptide concentrations in the vitreous chamber
Method: After intravitreal injection, C-peptide levels in the vitreous fluid were monitored with time. In this regard, C-peptide was intravitreally injected at a dose of 7.5 ng, after which C-peptide in the vitreous chamber was quantitated using a human C-peptide ELISA kit (Millipore Co. Billerica, Mass.) (n=4).

[10] = FIG. 6A
Text: Table printed on a drawing sheet, FIG. 6A
Footnotes: Data are means ± S.D. / ***p<0.001 vs. control mice.
FIG. 6D is a graph in which serum C-peptide levels are plotted against time after intravitreal injection; and
First reader's note: Each column is a mouse group; the cells give mean ± S.D. of the serum C-peptide level.

| serum C-peptide level [7] | level at time molar [9] | Serum C-peptide (nM) (4 weeks after C-peptide delivery) [10] | Serum C-peptide (nM) (at 1 week of diabetes induction) [10] | SMILES | VEGF-induced intracellular ROS generation [1] | effect on VEGF-induced changes in intracellular Ca2+ [2] | retinal microvascular leakage (extravasation of FITC-dextran) in diabetic mice [3] | VEGF-induced stress fiber formation [4] | VEGF-induced disassembly of VE-cadherin [5] | extravasation of FITC-dextran (vascular leakage) in the retinas of diabetic mice ([3]; intravitreal 2 μl C-peptide (3.7 μg/ml), 24 hrs post injection, vs PBS contralateral eye, n=6, p<0.05) | concentration at which complete prevention of VEGF-induced ROS generation was observed ([1]; HUVECs pre-treated 30 min, 10 ng/ml VEGF) | VEGF-induced generation of intracellular ROS ([1]; HUVECs pre-treated with various concentrations of C-peptide 30 min, 10 ng/ml VEGF, dose-dependent) | effect of substance alone on intracellular Ca2+ ([2]; no VEGF) | VEGF-induced decrease in the fluorescence intensity of the adherens junctions ([5]; HUVECs, VE-cadherin histograms (RFI), FIG. 4B) | diabetes-induced disassembly of adherens junctions in retinal microvessels [6] | VEGF-induced vascular permeability (Evans blue leakage) in skin ([8]; intradermal VEGF (10 ng) with 7.5 or 15 ng C-peptide, dose-dependent, n=12, p<0.01) | vascular permeability with C-peptide alone ([8]; intradermal, no VEGF) |
| --- | --- | --- | --- | --- | --- | --- | --- | --- | --- | --- | --- | --- | --- | --- | --- | --- | --- |
|  |  |  |  | CC(=O)OCOC(=O)CN(CC(=O)OCOC(C)=O)c1ccccc1OCCOc1ccccc1N(CC(=O)OCOC(C)=O)CC(=O)OCOC(C)=O [BAPTA-AM, 1,2-bis(2-aminophenoxy)ethane-N,N,N-′,N′-tetraacetic acid tetrakis(acetoxymethyl ester), reference compound] | blocked | blocked |  |  |  |  |  |  |  |  |  |  |  |
|  |  |  |  | CC(=O)N[C@@H](CS)C(=O)O [NAC, N-acetyl-L-cysteine, reference compound] | abolished |  | prevented | inhibited | prevented |  |  |  |  |  |  |  |  |
|  |  |  |  | Cc1c(C)c2c(c(C)c1O)CCC(C)(C(=O)O)O2 (centres unmarked) [Trolox, reference compound] | abolished |  | prevented | inhibited | prevented |  |  |  |  |  |  |  |  |
| elevated to a normal value | 0.9 to 2 nM | 1.50 ± 0.89 nM and 2.40 ± 0.93 nM | 1.44 ± 0.53 nM | CC(C)C[C@H](NC(=O)[C@H](C)NC(=O)[C@H](CC(C)C)NC(=O)[C@@H]1CCCN1C(=O)[C@H](CCC(N)=O)NC(=O)[C@H](CC(C)C)NC(=O)[C@H](CO)NC(=O)CNC(=O)[C@H](C)NC(=O)CNC(=O)[C@@H]1CCCN1C(=O)CNC(=O)CNC(=O)CNC(=O)[C@H](CC(C)C)NC(=O)[C@H](CCC(=O)O)NC(=O)[C@@H](NC(=O)[C@H](CCC(N)=O)NC(=O)CNC(=O)[C@@H](NC(=O)[C@H](CCC(N)=O)NC(=O)[C@H](CC(C)C)NC(=O)[C@H](CC(=O)O)NC(=O)[C@H](CCC(=O)O)NC(=O)[C@H](C)NC(=O)[C@@H](N)CCC(=O)O)C(C)C)C(C)C)C(=O)N[C@@H](CCC(=O)O)C(=O)NCC(=O)N[C@@H](CO)C(=O)N[C@@H](CC(C)C)C(=O)N[C@@H](CCC(N)=O)C(=O)O [C-peptide] |  | had no effect | blocked | sufficiently suppressed | inhibited | blocked | 0.5 nM | inhibited | did not increase | recovered | inhibited | suppressed | did not cause a significant change |
